This note sets out measurements from patent US10259818B2, “Bicyclic azaheterocyclobenzylamines as PI3K inhibitors” (Incyte Corporation, priority 2012, dated 2019).

Where a name gives a salt, the structure may show the parent alone.

For the first assay, the system named is SUDHL-6 cell line (diffuse large B cell lymphoma). In words: SUDHL-6 cell proliferation assay (Example B3). It is filed as cell-based. As to conditions: Homo sapiens, SU-DHL-6, 72 h, SUDHL-6 cells, 3 days, Cell Titer-GLO. As to the method: Example B3: SUDHL-6 Cell Proliferation Assay
SUDHL-6 cell line (diffuse large B cell lymphoma) was purchased from ATCC (Manassas, Va.) and maintained in the culture medium recommended (RPMI and 10% FBS). To measure the anti-proliferation activity of the compounds through ATP quantitation, the SUDHL-6 cells was plated with the culture medium (5000 cells/well/per 200 μl) into 96-well polystyrene clear black tissue culture plate (Greiner-bio-one through VWR, NJ) in the presence or absence of a concentration range of test compounds. After 3 days, Cell Titer-GLO Luminescent (Promega, Madison, Wis.) cell culture agent was added to each well for 10 minutes at room temperature to stabilize the luminescent signal. This determines the number of viable cells in culture based on quantitation of the ATP present, which signals the presence of metabolically active cells. Luminescence was measured with the TopCount 384 (Packard Bioscience through Perkin Elmer, Boston, Mass.). […] IC50 data for the Examples is presented in Table 4 determined by the assay of Example B3.
Take `CC(=O)N1CC(N2Cc3c(C#N)c(Cl)cc(C(C)n4nc(C)c5c(N)ncnc54)c3OC(C)C2)C1` (single isomer, unassigned) [Example 48, 4-(1-Acetylazetidin-3-yl)-9-[1-(4-amino-3-methyl-1H-pyrazolo [3,4-d]pyrimidin-1-yl)ethyl]-7-chloro-2-methyl-2,3,4,5-tetrahydro-1,4-benzoxazepine-6-carbonitrile]: the IC50 (usually the concentration at which inhibition is half-maximal) was 500 to 1000 nM.
As for `Cc1nn(C(C)c2cc(Cl)c(F)c3c2OC(C)CN(C2CN(C(N)=O)C2)C3)c2ncnc(N)c12` (single isomer, unassigned) [Example 83, 3-[9-[1-(4-amino-3-methyl-1H-pyrazolo[3,4-d]pyrimidin-1-yl)ethyl]-7-chloro-6-fluoro-2-methyl-2,3-dihydro-1,4-benzoxazepin-4(5H)-yl]azetidine-1-carboxamide], the IC50 is no more than 500 nM.
As to `Cc1nn(C(C)c2cc(Cl)c(F)c3c2OC[C@H](C)N(S(C)(=O)=O)C3)c2ncnc(N)c12` (single isomer, unassigned) [Example 35], the IC50 is no more than 500 nM.
The compound `Cc1c(Cl)cc(C(C)n2nc(C)c3c(N)ncnc32)c2c1CN(C1CCC1)CCO2` (centres unmarked) [Example 5, 1-[1-(7-Chloro-4-cyclobutyl-6-methyl-2,3,4,5-tetrahydro-1,4-benzoxazepin-9-yl)ethyl]-3-methyl-1H-pyrazolo[3,4-d]pyrimidin-4-amine bis(trifluoroacetate)] showed an IC50 of no more than 500 nM.
In turn, `Cc1c(Cl)cc(C(C)n2nc(C)c3c(N)ncnc32)c2c1CN(S(=O)(=O)C1CC1)CCO2` (centres unmarked) [Example 18, 1-{1-[7-Chloro-4-(cyclopropylsulfonyl)-6-methyl-2,3,4,5-tetrahydro-1,4-benzoxazepin-9-yl]ethyl}-3-methyl-1H-pyrazolo[3,4-d]pyrimidin-4-amine Trifluoroacetate] displayed an IC50 of 500 to 1000 nM.
As to `Cc1c(Cl)cc(C(C)n2nc(C)c3c(N)ncnc32)c2c1CN(C(C)C)CCO2` (centres unmarked) [Example 10, 1-[1-(7-Chloro-4-isopropyl-6-methyl-2,3,4,5-tetrahydro-1,4-benzoxazepin-9-yl)ethyl]-3-methyl-1H-pyrazolo[3,4-d]pyrimidin-4-amine bis(trifluoroacetate)], the IC50 was no more than 500 nM.
Compound `COCC(=O)N1CCOc2c(C(C)n3nc(C)c4c(N)ncnc43)cc(Cl)c(C)c2C1` (centres unmarked) [Example 21, 1-{1-[7-Chloro-4-(methoxyacetyl)-6-methyl-2,3,4,5-tetrahydro-1,4-benzoxazepin-9-yl]ethyl}-3-methyl-1H-pyrazolo[3,4-d]pyrimidin-4-amine Trifluoroacetate] displayed an IC50 of no more than 500 nM.
On the same count and under the same terms, for `Cc1nn(C(C)c2cc(Cl)c(F)c3c2OC(C)CN(C2CN(S(C)(=O)=O)C2)C3)c2ncnc(N)c12` (centres unmarked) [Example 75, 1-(1-{7-chloro-6-fluoro-2-methyl-4-[1-(methylsulfonyl)azetidin-3-yl]-2,3,4,5-tetrahydro-1,4-benzoxazepin-9-yl}ethyl)-3-methyl-1H-pyrazolo[3,4-d]pyrimidin-4-amine] the value was no more than 500 nM; for `CCC1CN(CCO)Cc2c(C#N)c(Cl)cc(C(C)n3nc(C)c4c(N)ncnc43)c2O1` (single isomer, unassigned) [Example 69, 9-[1-(4-Amino-3-methyl-1H-pyrazolo[3,4-d]pyrimidin-1-yl)ethyl]-7-chloro-2-ethyl-4-(2-hydroxyethyl)-2,3,4,5-tetrahydro-1,4-benzoxazepine-6-carbonitrile], no more than 500 nM.
The compound `Cc1nn(C(C)c2cc(Cl)c(C#N)c3c2OCCN(C2CN(S(C)(=O)=O)C2)C3)c2ncnc(N)c12` (centres unmarked) [Example 90, 9-[1-(4-amino-3-methyl-1H-pyrazolo[3,4-d]pyrimidin-1-yl)ethyl]-7-chloro-4-[1-(methylsulfonyl)azetidin-3-yl]-2,3,4,5-tetrahydro-1,4-benzoxazepine-6-carbonitrile] displayed an IC50 of no more than 500 nM.
Compound `Cc1nn(C(C)c2cc(Cl)c(C#N)c3c2OC(C)CN(C2CN(CC(N)=O)C2)C3)c2ncnc(N)c12` (single isomer, unassigned) [Example 53, 2-{3-[9-[1-(4-Amino-3-methyl-1H-pyrazolo[3,4-d]pyrimidin-1-yl)ethyl]-7-chloro-6-cyano-2-methyl-2,3-dihydro-1,4-benzoxazepin-4(5H)-yl]azetidin-1-yl}acetamide] returned an IC50 of no more than 500 nM.
The compound `Cc1nn(C(C)c2cc(Cl)c(C#N)c3c2OC(C)CN(CC#N)C3)c2ncnc(N)c12` (single isomer, unassigned) [Example 108, 9-[1-(4-amino-3-methyl-1H-pyrazolo[3,4-d]pyrimidin-1-yl)ethyl]-7-chloro-4-(cyanomethyl)-2-methyl-2,3,4,5-tetrahydro-1,4-benzoxazepine-6-carbonitrile] gave an IC50 of no more than 500 nM.
`Cc1nn(C(C)c2cc(Cl)c(F)c3c2O[C@@H](C)CN(C2CC(C(=O)O)C2)C3)c2ncnc(N)c12` (some centres unmarked) [Example 41, 3-[9-[1-(4-Amino-3-methyl-1H-pyrazolo[3,4-d]pyrimidin-1-yl)ethyl]-7-chloro-6-fluoro-2-methyl-2,3-dihydro-1,4-benzoxazepin-4(5H)-yl]cyclobutanecarboxylic Acid Trifluoroacetate] registered an IC50 of no more than 500 nM.
As to `Cc1c(Cl)cc(C(C)n2nc(C)c3c(N)ncnc32)c2c1CN(c1ncc(C#N)s1)CCO2` (centres unmarked) [Example 23, 2-[9-[1-(4-Amino-3-methyl-1H-pyrazolo[3,4-d]pyrimidin-1-yl)ethyl]-7-chloro-6-methyl-2,3-dihydro-1,4-benzoxazepin-4(5H)-yl]-1,3-thiazole-5-carbonitrile Trifluoroacetate], the IC50 is no more than 500 nM.
In turn, `Cc1nn(C(C)c2cc(Cl)c(C#N)c3c2OC(C)CN(C2CN(S(=O)(=O)N(C)C)C2)C3)c2ncnc(N)c12` (single isomer, unassigned) [Example 105, 3-[9-[1-(4-amino-3-methyl-1H-pyrazolo[3,4-d]pyrimidin-1-yl)ethyl]-7-chloro-6-cyano-2-methyl-2,3-dihydro-1,4-benzoxazepin-4(5H)-yl]-N,N-dimethylazetidine-1-sulfonamide] came in with a 50% inhibitory concentration (IC50) of no more than 500 nM.
For the compound `CCC(=O)N1CC(N2CCOc3c(C(C)n4nc(C)c5c(N)ncnc54)cc(Cl)c(C#N)c3C2)C1` (centres unmarked) [Example 89, 9-[1-(4-amino-3-methyl-1H-pyrazolo[3,4-d]pyrimidin-1-yl)ethyl]-7-chloro-4-(1-propionylazetidin-3-yl)-2,3,4,5-tetrahydro-1,4-benzoxazepine-6-carbonitrile], the IC50 was no more than 500 nM.
For the compound `Cc1nn(C(C)c2cc(Cl)c(F)c3c2OC(C)CN(C2CN(C(=O)OC(C)(C)C)C2)C3)c2ncnc(N)c12` (single isomer, unassigned) [Example 26, tert-Butyl 3-[9-[1-(4-amino-3-methyl-1H-pyrazolo[3,4-d]pyrimidin-1-yl)ethyl]-7-chloro-6-fluoro-2-methyl-2,3-dihydro-1,4-benzoxazepin-4(5H)-yl]azetidine-1-carboxylate], the half-maximal inhibitory concentration (IC50) was no more than 500 nM.
`Cc1nn(C(C)c2cc(Cl)c(F)c3c2OCCN(C2CN(C(=O)N(C)C)C2)C3)c2ncnc(N)c12` (centres unmarked) [Example 73, 3-[9-[1-(4-amino-3-methyl-1H-pyrazolo[3,4-d]pyrimidin-1-yl)ethyl]-7-chloro-6-fluoro-2,3-dihydro-1,4-benzoxazepin-4(5H)-yl]-N,N-dimethylazetidine-1-carboxamide] returned an IC50 of no more than 500 nM.
The same measure, in the same setting: to `Cc1c(Cl)cc(C(C)n2nc(C)c3c(N)ncnc32)c2c1CN(S(C)(=O)=O)CCO2` (centres unmarked) [Example 13, 1-{1-[7-Chloro-6-methyl-4-(methylsulfonyl)-2,3,4,5-tetrahydro-1,4-benzoxazepin-9-yl]ethyl}-3-methyl-1H-pyrazolo[3,4-d]pyrimidin-4-amine Trifluoroacetate] belongs no more than 500 nM.

Staying with this assay, now noted: SUDHL-6 cells, 3 days, Cell Titer-GLO.
In turn, `CCNC(=O)N1CC(N2Cc3c(C#N)c(Cl)cc(C(C)n4nc(C)c5c(N)ncnc54)c3OC(C)C2)C1` (single isomer, unassigned) [Example 98, 3-[9-[1-(4-amino-3-methyl-1H-pyrazolo[3,4-d]pyrimidin-1-yl)ethyl]-7-chloro-6-cyano-2-methyl-2,3-dihydro-1,4-benzoxazepin-4(5H)-yl]-N-ethylazetidine-1-carboxamide] registered an IC50 of no more than 500 nM.
`Cc1nn(C(C)c2cc(Cl)c(C#N)c3c2OC(C)CN(C2CN(CC(C)(C)O)C2)C3)c2ncnc(N)c12` (single isomer, unassigned) [Example 55, 9-[1-(4-Amino-3-methyl-1H-pyrazolo[3,4-d]pyrimidin-1-yl)ethyl]-7-chloro-4-[1-(2-hydroxy-2-methylpropyl)azetidin-3-yl]-2-methyl-2,3,4,5-tetrahydro-1,4-benzoxazepine-6-carbonitrile] gave an IC50 of no more than 500 nM.
Regarding `Cc1nn(C(C)c2cc(Cl)c(F)c3c2O[C@@H](C)CN(C2CC(C(=O)O)C2)C3)c2ncnc(N)c12` (some centres unmarked) [Example 42, 3-[9-[1-(4-Amino-3-methyl-1H-pyrazolo[3,4-d]pyrimidin-1-yl)ethyl]-7-chloro-6-fluoro-2-methyl-2,3-dihydro-1,4-benzoxazepin-4(5H)-yl]cyclobutanecarboxylic Acid Trifluoroacetate], the IC50 is no more than 500 nM.
Compound `Cc1nn(C(C)c2cc(Cl)c(C#N)c3c2OC(C)CN(CC(C)(C)O)C3)c2ncnc(N)c12` (single isomer, unassigned) [Example 66, 9-[1-(4-Amino-3-methyl-1H-pyrazolo[3,4-d]pyrimidin-1-yl)ethyl]-7-chloro-4-(2-hydroxy-2-methylpropyl)-2-methyl-2,3,4,5-tetrahydro-1,4-benzoxazepine-6-carbonitrile] showed an IC50 of no more than 500 nM.
